Reference: patent US8318762B2, “Pyrazolospiroketone acetyl-CoA carboxylase inhibitors” (Pfizer Inc., priority 2008, dated 2012)

Biological target: T1, recombinant human ACC2 (Homo sapiens, UniProt O00763)
T1 construct: a full length Cytomax clone of ACC2 was purchased from Cambridge Bioscience Limited; made in house; host or cells: CHO cells (tetracycline induction, pcDNA5 FRT TO-TOPO); purified on a Softlink Soft Release Avidin column
Experiment: Measurement of human ACC2 inhibition (recombinant hACC2 Transcreener ADP detection FP assay)
Assay type: biochemical
Conditions: recombinant hACC2 transcreener assay; read-out: rhACC2 IC50
Method: [3] Measurement of human ACC2 inhibition. Human ACC2 inhibition was measured using purified recombinant human ACC2 (hrACC2). […] The ACC2 was expressed in CHO cells by tetracycline induction and harvested in 5 liters of DMEM/F12 with glutamine, biotin, hygromycin and blasticidin with 1 μg/mL tetracycline (Invitrogen, Carlsbad, Calif.). The conditioned medium containing ACC2 was then applied to a Softlink Soft Release Avidin column (Promega, Madison, Wis.) and eluted with 5 mM biotin. […] The purified ACC2 was dialyzed in 50 mM Tris, 200 mM NaCl, 4 mM DTT, 2 mM EDTA, and 5% glycerol. […] The final conditions for the assay were 50 mM HEPES, pH7.5, 5 mM MgCl2, 5 mM tripotassium citrate, 2 mM DTT, 0.5 mg/mL BSA, 30 μM acetyl-CoA, 50 μM ATP, and 8 mM KHCO3. Typically, a 10 μl reaction was run for 1 hour at room temperature, and 10 μl of Transcreener stop and detect buffer was added and incubated for an additional 1 hour.

T1 sequence (O00763 whole entry): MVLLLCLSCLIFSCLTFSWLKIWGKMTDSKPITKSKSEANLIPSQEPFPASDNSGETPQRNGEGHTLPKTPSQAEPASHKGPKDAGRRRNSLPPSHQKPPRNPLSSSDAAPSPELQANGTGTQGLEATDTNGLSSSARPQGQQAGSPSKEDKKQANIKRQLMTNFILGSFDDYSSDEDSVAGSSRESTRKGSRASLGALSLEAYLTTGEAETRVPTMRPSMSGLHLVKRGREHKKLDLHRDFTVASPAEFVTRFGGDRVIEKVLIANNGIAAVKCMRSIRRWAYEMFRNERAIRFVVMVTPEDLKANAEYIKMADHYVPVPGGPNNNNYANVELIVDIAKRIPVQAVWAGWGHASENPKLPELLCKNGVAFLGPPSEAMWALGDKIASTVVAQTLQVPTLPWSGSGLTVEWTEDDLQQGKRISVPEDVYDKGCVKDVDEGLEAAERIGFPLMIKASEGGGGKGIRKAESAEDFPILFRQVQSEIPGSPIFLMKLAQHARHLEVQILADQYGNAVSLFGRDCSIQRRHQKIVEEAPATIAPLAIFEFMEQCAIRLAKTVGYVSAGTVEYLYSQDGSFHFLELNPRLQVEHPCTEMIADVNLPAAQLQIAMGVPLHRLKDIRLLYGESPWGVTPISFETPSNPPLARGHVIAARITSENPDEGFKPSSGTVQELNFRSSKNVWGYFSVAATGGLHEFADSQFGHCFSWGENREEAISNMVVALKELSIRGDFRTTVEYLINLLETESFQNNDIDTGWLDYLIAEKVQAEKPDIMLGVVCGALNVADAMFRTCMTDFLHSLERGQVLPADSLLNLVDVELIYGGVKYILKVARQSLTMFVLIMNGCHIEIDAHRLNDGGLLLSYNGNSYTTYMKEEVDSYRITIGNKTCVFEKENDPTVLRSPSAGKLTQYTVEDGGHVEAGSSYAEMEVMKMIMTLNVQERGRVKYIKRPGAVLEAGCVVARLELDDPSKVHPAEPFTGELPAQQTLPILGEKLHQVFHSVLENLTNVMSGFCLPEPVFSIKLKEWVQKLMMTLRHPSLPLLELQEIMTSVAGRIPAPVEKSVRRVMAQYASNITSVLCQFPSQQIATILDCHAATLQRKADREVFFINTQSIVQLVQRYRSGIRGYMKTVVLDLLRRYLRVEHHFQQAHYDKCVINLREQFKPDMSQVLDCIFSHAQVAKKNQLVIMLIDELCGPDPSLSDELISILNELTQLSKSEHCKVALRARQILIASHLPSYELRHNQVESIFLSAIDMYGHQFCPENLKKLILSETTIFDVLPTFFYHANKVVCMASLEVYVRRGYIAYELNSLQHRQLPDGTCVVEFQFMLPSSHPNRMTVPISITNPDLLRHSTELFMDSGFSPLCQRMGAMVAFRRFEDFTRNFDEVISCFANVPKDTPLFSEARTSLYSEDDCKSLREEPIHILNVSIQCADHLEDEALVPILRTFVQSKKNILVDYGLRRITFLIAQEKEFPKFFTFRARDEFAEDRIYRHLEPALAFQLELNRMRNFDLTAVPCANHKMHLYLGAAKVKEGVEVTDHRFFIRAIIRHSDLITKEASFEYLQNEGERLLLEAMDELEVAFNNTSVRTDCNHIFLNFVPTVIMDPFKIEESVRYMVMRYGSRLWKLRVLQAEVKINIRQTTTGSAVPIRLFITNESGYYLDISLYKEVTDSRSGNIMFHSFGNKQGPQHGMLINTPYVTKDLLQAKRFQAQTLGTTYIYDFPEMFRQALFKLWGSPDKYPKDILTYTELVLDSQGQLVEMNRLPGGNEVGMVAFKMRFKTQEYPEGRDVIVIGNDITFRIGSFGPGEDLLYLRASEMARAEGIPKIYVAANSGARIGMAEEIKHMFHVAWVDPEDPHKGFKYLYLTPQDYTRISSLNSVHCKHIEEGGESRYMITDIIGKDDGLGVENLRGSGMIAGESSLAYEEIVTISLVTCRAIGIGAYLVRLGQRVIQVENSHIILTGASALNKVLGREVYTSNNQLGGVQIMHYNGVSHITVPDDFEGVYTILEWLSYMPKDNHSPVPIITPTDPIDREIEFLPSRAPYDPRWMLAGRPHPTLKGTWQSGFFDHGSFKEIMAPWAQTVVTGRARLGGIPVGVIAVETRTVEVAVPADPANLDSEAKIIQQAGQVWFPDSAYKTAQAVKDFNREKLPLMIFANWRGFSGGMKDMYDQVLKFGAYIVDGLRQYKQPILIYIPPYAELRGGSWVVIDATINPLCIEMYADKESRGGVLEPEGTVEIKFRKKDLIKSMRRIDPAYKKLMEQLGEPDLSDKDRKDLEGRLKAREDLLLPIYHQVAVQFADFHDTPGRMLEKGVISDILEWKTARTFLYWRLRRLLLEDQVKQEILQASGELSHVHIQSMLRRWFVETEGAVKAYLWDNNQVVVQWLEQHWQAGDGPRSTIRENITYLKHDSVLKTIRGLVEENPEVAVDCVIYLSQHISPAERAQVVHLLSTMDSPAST

| SMILES | IC50 [nM] |
| --- | --- |
| Cc1nc2c(F)cc(C(=O)N3CCC4(CC3)CC(=O)c3nn(C(C)(C)C)cc3O4)cc2[nH]1 [3.019] | 17 |
| CCn1nc2c(c1C)OC1(CCN(C(=O)c3cc(F)c4nc[nH]c4c3)CC1)CC2=O [3.020] | 139 |
| CC(C)n1cc2c(n1)C(=O)CC1(CCN(C(=O)c3cc(F)c4nc[nH]c4c3)CC1)O2 [3.021] | 39 |
| CC(C)(C)n1cc2c(n1)C(=O)CC1(CCN(C(=O)c3cc(F)c4nc[nH]c4c3)CC1)O2 [3.022] | 14 |
| Cc1cc(C(=O)N2CCC3(CC2)CC(=O)c2nn(C(C)(C)C)cc2O3)cc2c1ncn2C [3.023] | 15 |
| Cc1nc2c(F)cc(C(=O)N3CCC4(CC3)CC(=O)c3nn(C(C)C)cc3O4)cc2[nH]1 [3.024] | 70 |
| CCn1nc2c(c1C)OC1(CCN(C(=O)c3cc(C)c4ncn(C)c4c3)CC1)CC2=O [3.025] | 49 |
| CCn1nc2c(c1C)OC1(CCN(C(=O)c3ccc4nc[nH]c4c3)CC1)CC2=O [3.026] | 168 |
| Cc1nc2ccc(C(=O)N3CCC4(CC3)CC(=O)c3nn(C(C)(C)C)cc3O4)cc2n1C [3.027] | 42 |
| CC(C)n1cc2c(n1)C(=O)CC1(CCN(C(=O)c3ccc4cn(C)nc4c3)CC1)O2 [5.001] | 675 |
| CCn1nc2c(c1C)OC1(CCN(C(=O)c3ccc4ccc(OC)cc4c3)CC1)CC2=O [6.001] | 13 |
| COc1ccc2ccc(C(=O)N3CCC4(CC3)CC(=O)c3nn(C(C)(C)C)cc3O4)cc2c1 [6.003] | 2 |
| Cc1ccc2cc(C(=O)N3CCC4(CC3)CC(=O)c3nn(C(C)(C)C)cc3O4)ccc2c1 [6.005] | 48 |
| COc1cccc2cc(C(=O)N3CCC4(CC3)CC(=O)c3nn(C(C)(C)C)cc3O4)ccc12 [6.006] | 7 |
| CCn1nc2c(c1C)OC1(CCN(C(=O)c3ccc4ccccc4c3)CC1)CC2=O [6.007] | 40 |
| CC(C)n1cc2c(n1)C(=O)CC1(CCN(C(=O)c3ccc4snc(N)c4c3)CC1)O2 [7.001] | 16 |
| CC(C)(C)n1cc2c(n1)C(=O)CC1(CCN(C(=O)c3ccc4snc(N)c4c3)CC1)O2 [7.002] | 3 |

| SMILES | IC50 [nM] |
| --- | --- |
| CCn1nc2c(c1C)OC1(CCN(C(=O)c3ccc4snc(N)c4c3)CC1)CC2=O [7.003] | 19 |
| CC(C)(C)n1cc2c(n1)C(=O)CC1(CCN(C(=O)c3ccc4sncc4c3)CC1)O2 [7.004] | 23 |
| CCn1nc2c(c1C)OC1(CCN(C(=O)c3ccc4sncc4c3)CC1)CC2=O [7.005] | 36 |
| CC(C)n1cc2c(n1)C(=O)CC1(CCN(C(=O)c3ccc4sncc4c3)CC1)O2 [7.006] | 92 |
| Cc1cc(C(=O)N2CCC3(CC2)CC(=O)c2nn(C(C)(C)C)cc2O3)cc2cnsc12 [7.007] | 5 |
| CCn1nc2c(c1C)OC1(CCN(C(=O)c3cc(C)c4sncc4c3)CC1)CC2=O [7.008] | 93 |
| Cc1cc(C(=O)N2CCC3(CC2)CC(=O)c2nn(C(C)C)cc2O3)cc2cnsc12 [7.009] | 18 |
| Cc1cc(C(=O)N2CCC3(CC2)CC(=O)c2nn(C(C)(C)C)cc2O3)cc2ncn(C)c12 [8.001] | 36 |
| Cc1cc(C(=O)N2CCC3(CC2)CC(=O)c2nn(C(C)C)cc2O3)cc2ncn(C)c12 [8.002] | 59 |
| CCn1nc2c(c1C)OC1(CCN(C(=O)c3cc(C)c4c(c3)ncn4C)CC1)CC2=O [8.003] | 87 |
| CCn1nc2c(c1C)OC1(CCN(C(=O)c3ccc4c(c3)nc(C)n4CC)CC1)CC2=O [8.004] | 481 |
| CCn1nc2c(c1C)OC1(CCN(C(=O)c3ccc4c(c3)ncn4C)CC1)CC2=O [8.005] | 159 |
| CCn1nc2c(c1C)OC1(CCN(C(=O)c3ccc4c(c3)nc(C)n4C)CC1)CC2=O [8.006] | 266 |
| Cn1cnc2cc(C(=O)N3CCC4(CC3)CC(=O)c3nn(C(C)(C)C)cc3O4)ccc21 [8.007] | 58 |
| CCn1c(C)nc2cc(C(=O)N3CCC4(CC3)CC(=O)c3nn(C(C)(C)C)cc3O4)ccc21 [8.008] | 52 |
| Cc1nc2cc(C(=O)N3CCC4(CC3)CC(=O)c3nn(C(C)(C)C)cc3O4)ccc2n1C [8.009] | 47 |
| Cn1c(O)nc2cc(C(=O)N3CCC4(CC3)CC(=O)c3nn(C(C)(C)C)cc3O4)ccc21 [8.010] | 18 |

Other lines, results leading:

| IC50 [nM] | SMILES |
| --- | --- |
| 186 | CCn1nc2c(c1C)OC1(CCN(C(=O)c3ccc4c(c3)nc(O)n4C)CC1)CC2=O [8.011] |
| 300 | CC(C)n1cc2c(n1)C(=O)CC1(CCN(C(=O)c3ccc4ocnc4c3)CC1)O2 [9.001] |
| 291 | CC(C)(C)n1cc2c(n1)C(=O)CC1(CCN(C(=O)c3ccc4ocnc4c3)CC1)O2 [9.002] |
| 29 | COc1cc(C(=O)N2CCC3(CC2)CC(=O)c2nn(C(C)(C)C)cc2O3)cc2nc(C)oc12 [9.003] |
| 83 | COc1cc(C(=O)N2CCC3(CC2)CC(=O)c2nn(C(C)C)cc2O3)cc2nc(C)oc12 [9.004] |
| 179 | CCn1nc2c(c1C)OC1(CCN(C(=O)c3cc(OC)c4oc(C)nc4c3)CC1)CC2=O [9.005] |
| 285 | CCn1nc2c(c1C)OC1(CCN(C(=O)c3ccc4ncsc4c3)CC1)CC2=O [10.001] |
| 33 | CCn1nc2c(c1C)OC1(CCN(C(=O)c3cc(C)c4[nH]c(=O)ccc4c3)CC1)CC2=O [11.001] |
| 11 | Cc1cc(C(=O)N2CCC3(CC2)CC(=O)c2nn(C(C)(C)C)cc2O3)cc2ccc(=O)[nH]c12 [11.002] |
| 299 | CCn1nc2c(c1C)OC1(CCN(C(=O)c3ccc4c(c3)N(C)C(=O)CC4)CC1)CC2=O [12.001] |
| 36 | CCn1nc2c(c1C)OC1(CCN(C(=O)c3ccc4c(c3)NC(=O)CC4)CC1)CC2=O [12.002] |
| 52 | CN1C(=O)CCc2ccc(C(=O)N3CCC4(CC3)CC(=O)c3nn(C(C)(C)C)cc3O4)cc21 [12.003] |
| 14 | CC(C)(C)n1cc2c(n1)C(=O)CC1(CCN(C(=O)c3ccc4c(c3)NC(=O)CC4)CC1)O2 [12.004] |
| 45 | CC(C)(C)n1cc2c(n1)C(=O)CC1(CCN(C(=O)c3ccc4c(c3)NC(=O)CO4)CC1)O2 [12.005] |
| 421 | CCn1nc2c(c1C)OC1(CCN(C(=O)c3ccc4c(c3)CCC(=O)N4)CC1)CC2=O [13.001] |
| 861 | CCn1nc2c(c1C)OC1(CCN(C(=O)c3ccc4c(c3)OCC(=O)N4)CC1)CC2=O [13.002] |
| 49 | CC(C)(C)n1cc2c(n1)C(=O)CC1(CCN(C(=O)c3ccc4c(c3)OCC(=O)N4)CC1)O2 [13.003] |
| 33 | CC(C)(C)n1cc2c(n1)C(=O)CC1(CCN(C(=O)c3ccc4c(c3)CCC(=O)N4)CC1)O2 [13.004] |
| 7 | Cc1nc2cc(C(=O)N3CCC4(CC3)CC(=O)c3nn(C(C)(C)C)cc3O4)ccc2s1 [14.001] |
| 176 | CCn1nc2c(c1C)OC1(CCN(C(=O)c3ccc4sc(C)nc4c3)CC1)CC2=O [14.002] |
| 26 | Cc1ccc2cc(C(=O)N3CCC4(CC3)CC(=O)c3nn(C(C)(C)C)cc3O4)ccc2n1 [15.001] |
| 11 | CC(C)(C)n1cc2c(n1)C(=O)CC1(CCN(C(=O)c3ccc4ncccc4c3)CC1)O2 [15.002] |
| 179 | CCn1nc2c(c1C)OC1(CCN(C(=O)c3ccc4ncccc4c3)CC1)CC2=O [15.003] |
| 12 | CC(C)(C)n1cc2c(n1)C(=O)CC1(CCN(C(=O)c3ccc4cccnc4c3)CC1)O2 [16.001] |
| 250 | CCn1nc2c(c1C)OC1(CCN(C(=O)c3ccc4cccnc4c3)CC1)CC2=O [16.002] |
| 33 | CC(C)(C)n1cc2c(n1)C(=O)CC1(CCN(C(=O)c3ccc4occc4c3)CC1)O2 [17.001] |
